According to PubChem BioAssay AID1259407 (Chemical Carcinogenesis Research Information System (CCRIS), 2018):
Active and inactive are the calls of the source. How the calls were made is not given here.

Test system: CCRIS mutagenicity, Ames/micronucleus/aberration tests
Experiment: CCRIS mutagenicity studies
[1] = Test System: AMES SALMONELLA TYPHIMURIUM, Strain/Indicator: TA98, Metabolic Activation: NONE, Method: PREINCUBATION
[2] = Test System: AMES SALMONELLA TYPHIMURIUM, Strain/Indicator: TA100, Metabolic Activation: NONE, Method: PREINCUBATION
[3] = Test System: AMES SALMONELLA TYPHIMURIUM, Strain/Indicator: TA104, Metabolic Activation: NONE, Method: PREINCUBATION
[4] = Test System: AMES SALMONELLA TYPHIMURIUM, Strain/Indicator: TA1535, Metabolic Activation: NONE, Method: PREINCUBATION
[5] = Test System: AMES SALMONELLA TYPHIMURIUM, Strain/Indicator: TA98, Metabolic Activation: NONE, Method: STANDARD PLATE
[6] = Test System: AMES SALMONELLA TYPHIMURIUM, Strain/Indicator: TA97, Metabolic Activation: NONE, Method: STANDARD PLATE
[7] = Test System: AMES SALMONELLA TYPHIMURIUM, Strain/Indicator: TA98, Metabolic Activation: RAT, LIVER, S-9, AROCLOR 1254, Method: STANDARD PLATE
[8] = Test System: AMES SALMONELLA TYPHIMURIUM, Strain/Indicator: TA100, Metabolic Activation: NONE, Method: STANDARD PLATE
[9] = Test System: AMES SALMONELLA TYPHIMURIUM, Strain/Indicator: TA100, Metabolic Activation: RAT, LIVER, S-9, AROCLOR 1254, Method: STANDARD PLATE
[10] = Test System: AMES SALMONELLA TYPHIMURIUM, Strain/Indicator: TA102, Metabolic Activation: NONE, Method: STANDARD PLATE

O=C1C=C(S(=O)(=O)O)c2ccccc2C1=O
mutagenic call (Test System: AMES SALMONELLA TYPHIMURIUM, Strain/Indicator: TA97, Metabolic Activation: NONE, Method: PREINCUBATION): inactive; negative
mutagenic call (Test System: AMES SALMONELLA TYPHIMURIUM, Strain/Indicator: TA97, Metabolic Activation: RAT, LIVER, S-9, PHENOBARBITAL AND 5,6-BENZOFLAVONE, Method: PREINCUBATION): inactive; negative
mutagenic call [1]: inactive; negative
mutagenic call (Test System: AMES SALMONELLA TYPHIMURIUM, Strain/Indicator: TA98, Metabolic Activation: RAT, LIVER, S-9, PHENOBARBITAL AND 5,6-BENZOFLAVONE, Method: PREINCUBATION): inactive; negative
mutagenic call [2]: active; positive
mutagenic call (Test System: AMES SALMONELLA TYPHIMURIUM, Strain/Indicator: TA100, Metabolic Activation: RAT, LIVER, S-9, PHENOBARBITAL AND 5,6-BENZOFLAVONE, Method: PREINCUBATION): inactive; negative
mutagenic call (Test System: AMES SALMONELLA TYPHIMURIUM, Strain/Indicator: TA102, Metabolic Activation: NONE, Method: PREINCUBATION): inactive; negative
mutagenic call (Test System: AMES SALMONELLA TYPHIMURIUM, Strain/Indicator: TA102, Metabolic Activation: RAT, LIVER, S-9, PHENOBARBITAL AND 5,6-BENZOFLAVONE, Method: PREINCUBATION): inactive; negative
mutagenic call [3]: active; positive
mutagenic call (Test System: AMES SALMONELLA TYPHIMURIUM, Strain/Indicator: TA104, Metabolic Activation: RAT, LIVER, S-9, PHENOBARBITAL AND 5,6-BENZOFLAVONE, Method: PREINCUBATION): inactive; negative
mutagenic call [4]: inactive; negative
mutagenic call (Test System: AMES SALMONELLA TYPHIMURIUM, Strain/Indicator: TA1535, Metabolic Activation: RAT, LIVER, S-9, PHENOBARBITAL AND 5,6-BENZOFLAVONE, Method: PREINCUBATION): inactive; negative
mutagenic call (Test System: AMES SALMONELLA TYPHIMURIUM, Strain/Indicator: TA1537, Metabolic Activation: NONE, Method: PREINCUBATION): inactive; negative
mutagenic call (Test System: AMES SALMONELLA TYPHIMURIUM, Strain/Indicator: TA1537, Metabolic Activation: RAT, LIVER, S-9, PHENOBARBITAL AND 5,6-BENZOFLAVONE, Method: PREINCUBATION): inactive; negative
mutagenic call (Test System: AMES SALMONELLA TYPHIMURIUM, Strain/Indicator: TA1538, Metabolic Activation: NONE, Method: PREINCUBATION): inactive; negative
mutagenic call (Test System: AMES SALMONELLA TYPHIMURIUM, Strain/Indicator: TA1538, Metabolic Activation: RAT, LIVER, S-9, PHENOBARBITAL AND 5,6-BENZOFLAVONE, Method: PREINCUBATION): inactive; negative
mutagenic call (Test System: AMES SALMONELLA TYPHIMURIUM, Strain/Indicator: TA2637, Metabolic Activation: NONE, Method: PREINCUBATION): active; positive
mutagenic call (Test System: AMES SALMONELLA TYPHIMURIUM, Strain/Indicator: TA2637, Metabolic Activation: RAT, LIVER, S-9, PHENOBARBITAL AND 5,6-BENZOFLAVONE, Method: PREINCUBATION): inactive; negative

O=Nc1ccc2ccc3cc4ccccc4c4ccc1c2c34
mutagenic call (Test System: AMES SALMONELLA TYPHIMURIUM, Strain/Indicator: TA98 (1,8-DNP6), Metabolic Activation: NONE, Method: STANDARD PLATE): active; positive
mutagenic call (Test System: AMES SALMONELLA TYPHIMURIUM, Strain/Indicator: TA98 (NR), Metabolic Activation: NONE, Method: STANDARD PLATE): active; positive
mutagenic call [5]: active; positive
mutagenic call (Test System: CHINESE HAMSTER OVARY, Strain/Indicator: CHO-K1-BH4 (HGPRT), Metabolic Activation: NONE): active; positive

CC(O)/C=C/C=O (stereo not drawn)
mutagenic call [3]: active; positive

[O]=[Cr][O][Cr]=[O]
mutagenic call (Test System: CHINESE HAMSTER V-79, Strain/Indicator: V-79/6-THIOGUANINE, Metabolic Activation: NONE): active; positive

O=NN1CCCCCC1
mutagenic call (Test System: AMES SALMONELLA TYPHIMURIUM, Strain/Indicator: TA100, Metabolic Activation: RABBIT, LIVER, S-9, Method: PREINCUBATION): active; positive
mutagenic call (Test System: AMES SALMONELLA TYPHIMURIUM, Strain/Indicator: TA100, Metabolic Activation: RABBIT, LUNG MACROPHAGES, Method: PREINCUBATION): inactive; negative
mutagenic call (Test System: AMES SALMONELLA TYPHIMURIUM, Strain/Indicator: TA100, Metabolic Activation: RABBIT, LUNG, CLARA CELLS, Method: PREINCUBATION): inactive; negative
mutagenic call (Test System: AMES SALMONELLA TYPHIMURIUM, Strain/Indicator: TA100, Metabolic Activation: RABBIT, LUNG, TYPE II CELLS, Method: PREINCUBATION): inactive; negative
mutagenic call (Test System: AMES SALMONELLA TYPHIMURIUM, Strain/Indicator: TA1530, Metabolic Activation: RABBIT, LIVER, S-9, Method: PREINCUBATION): active; positive
mutagenic call (Test System: AMES SALMONELLA TYPHIMURIUM, Strain/Indicator: TA1530, Metabolic Activation: RABBIT, LUNG MACROPHAGES, Method: PREINCUBATION): inactive; negative
mutagenic call (Test System: AMES SALMONELLA TYPHIMURIUM, Strain/Indicator: TA1530, Metabolic Activation: RABBIT, LUNG, CLARA CELLS, Method: PREINCUBATION): inactive; negative
mutagenic call (Test System: AMES SALMONELLA TYPHIMURIUM, Strain/Indicator: TA1530, Metabolic Activation: RABBIT, LUNG, TYPE II CELLS, Method: PREINCUBATION): inactive; negative
mutagenic call (Test System: UDS RABBIT LUNG CLARA CELLS, Strain/Indicator: THY INCORP, Metabolic Activation: NONE, Method: LIQUID SCINTILLATION COUNTING): active; positive
mutagenic call (Test System: UDS RABBIT LUNG MACROPHAGES, Strain/Indicator: THY INCORP, Metabolic Activation: NONE, Method: LIQUID SCINTILLATION COUNTING): inactive; negative
mutagenic call (Test System: UDS RABBIT LUNG TYPE II CELLS, Strain/Indicator: THY INCORP, Metabolic Activation: NONE, Method: LIQUID SCINTILLATION COUNTING): inactive; negative

Cc1nc2c(c3[nH]c4ccccc4c13)C(=O)C(N1CCN(C)CC1)=CC2=O
mutagenic call [6]: inactive; negative
mutagenic call (Test System: AMES SALMONELLA TYPHIMURIUM, Strain/Indicator: TA97, Metabolic Activation: RAT, LIVER, S-9, AROCLOR 1254, Method: STANDARD PLATE): inactive; negative
mutagenic call [5]: inactive; negative
mutagenic call [7]: inactive; negative
mutagenic call [8]: active; positive
mutagenic call [9]: inactive; negative
mutagenic call [10]: inactive; negative
mutagenic call (Test System: AMES SALMONELLA TYPHIMURIUM, Strain/Indicator: TA102, Metabolic Activation: RAT, LIVER, S-9, AROCLOR 1254, Method: STANDARD PLATE): inactive; negative

CC1CNC(=O)N1c1ncc([N+](=O)[O-])s1 (stereo not drawn)
mutagenic call [5]: active; positive
mutagenic call [8]: active; positive

CCCCOc1cc(N=Nc2ccc(N(CC)CC)cc2)ccc1N=Nc1c(S(=O)(=O)O)cc2ccc(N)cc2c1O
mutagenic call [5]: inactive; negative
mutagenic call [7]: active; positive
mutagenic call [8]: inactive; negative
mutagenic call [9]: inactive; negative
mutagenic call (Test System: AMES SALMONELLA TYPHIMURIUM, Strain/Indicator: TA1538, Metabolic Activation: NONE, Method: STANDARD PLATE): inactive; negative
mutagenic call (Test System: AMES SALMONELLA TYPHIMURIUM, Strain/Indicator: TA1538, Metabolic Activation: RAT, LIVER, S-9, AROCLOR 1254, Method: STANDARD PLATE): active; positive

O=C1OC(O)C(CCl)=C1Cl (stereo not drawn)
mutagenic call [6]: active; positive
mutagenic call [5]: active; positive
mutagenic call [10]: active; positive
mutagenic call (Test System: AMES SALMONELLA TYPHIMURIUM, Strain/Indicator: TA1535, Metabolic Activation: NONE, Method: STANDARD PLATE): active; positive
mutagenic call (Test System: CHINESE HAMSTER OVARY, Strain/Indicator: CHO-KTL3 (HPRT)/6-THIOGUANINE, Metabolic Activation: NONE): active; positive
mutagenic call (Test System: UDS RAT HEPATOCYTES, Strain/Indicator: THYMIDINE INCORPORATION, Metabolic Activation: NONE, Method: AUTORADIOGRAPHY): active; positive

FC(F)(F)c1ccc(Cl)c(Cl)c1
mutagenic call (Test System: E. coli, Strain/Indicator: WP2uvrA/pKM101, Metabolic Activation: None, Method: Preincubation): inactive; negative
mutagenic call (Test System: E. coli, Strain/Indicator: WP2uvrA/pKM101, Metabolic Activation: Rat, Liver, S9, Sodium phenobarbital and 5,6-benzoflavone, Method: Preincubation): inactive; negative

c1cnc2c3c(ccc2c1)CC[C@H]1O[C@@H]31
mutagenic call [8]: active; positive

O[C@H]1[C@@H]2O[C@@H]2C=C[C@@H]1O
mutagenic call [1]: inactive; negative
mutagenic call [2]: inactive; negative
mutagenic call [4]: active; positive
